The record followed here is patent US12065443B2, “Compounds and pharmaceutical compositions thereof for the treatment of diseases” (priority 2017, dated 2024).

What is called EC50 is the concentration at which the effect is half-maximal. A low value points to greater potency. As a reminder, the IC50 is the concentration at which inhibition is half-maximal.

For test [1], the system named is LPS-induced TNFα secretion in monocyte-derived macrophages (MdM). Kind of test: MdM assay: LPS-triggered TNFα (ELISA). The test is classed as cell-based, human. The settings on record: LPS-triggered TNFα inhibition. The protocol:
This assay evaluates illustrative compounds of the invention for their inhibition of LPS-induced TNFα and LPS triggered IL-10 secretion in monocyte-derived macrophages.
PBMCs are isolated from human blood samples (buffycoats). The buffy coat is aseptically transferred into a 50 mL Falcon tube, and diluted 1/2 in PBS. Falcon tubes are filled with 20 mL Lymphoprep™, on top of which 25 mL of the buffy coat is carefully added, tubes are centrifuged for 35 min at 400 g in temperature controlled centrifuge, without brake, at 25° C. PBMCs are aspirated from the white interface layer between sample and Lymphoprep™. PBMCs are washed five times in PBS.
PBMCs are centrifuged at 300×g for 10 min and resuspended at a density of 1.0E07 cells/80 μL Miltenyi buffer (PBS, pH 7.4, 1% FBS, 2 mM EDTA).
Starting from this point of the protocol all steps are performed on ice. 20 μL of CD14+ micro-beads are added per 1.0E07 cells, the tube is mixed and incubated for 15 min in the fridge at 4° C. Cell suspension volume is adjusted to total volume of 100 mL using Miltenyi buffer, mixed gently and subsequently centrifuged for 10 min at 300× g. Supernantant is discarded and cell pellet is resuspended in 12 mL of Miltenyi buffer.
Four LS columns are placed in the MACS Separator (magnet) from Miltenyi Biotec, and are prewet by rinsing with 3 mL of MACS buffer per column. Three mL of cell suspension is added onto the column (max 1*10^8 of labelled cells/column), and columns are subsequently washed 3 times with 3 mL of Miltenyi buffer.
The columns are removed from the magnets, and 5 mL of Miltenyi buffer are added to the column to flush out the CD14+ fraction by pushing the plunger into the column. The flushed fractions are collected in a fresh 50 mL Falcon and volume is adjusted to 30 mL using Miltenyi buffer, cells are centrifuged for 10 min at 300× g. The obtained cell pellet is resuspended in 10 mL RPMI w/o FBS, and cell density is determined using a hematologic analyser (Sysmex XS-500i).
On day 10, MdMs are triggered and compound is added.
A compound dilution plate is made in 100% DMSO by 3-fold dilution of 10 mM stock solution. An intermediate dilution plate (10× final concentration) is made by diluting the compound dilution plate 50-fold in RPMI medium.
Medium is carefully removed from cell plates using multichannel pipette, and replaced by 80 μL fresh medium. 10 μL of the 10× final concentration compound is added to the cells and incubated for 1 hour at 37° C. before addition of trigger. No trigger conditions/trigger conditions are spiked with equal final DMSO concentrations of 0.2% DMSO. 10 μL of 10×LPS (final conc. 200 ng/mL) solution are added to all wells except for the ‘no trigger wells’ where 10 μL medium is added. Supernatant is collected after 2 h (IL-10 determination) and after 20 h (TNFα determination) of LPS triggering.
The plate is then washed once with PBST (PBS+0.05% Tween20) and once with PBS followed by the addition of 100 μL of blocking buffer (1% Bovine Serum Albumin (BSA)-5% Sucrose) and plates are sealed and incubated for at least 4 h at RT. After washing the plate once with PBST and once with PBS, 40 μL of standard or sample are added (TNFα standard curve is prepared using a 1/2 serial dilution starting from 16000 pg/mL; dilutions are made in dilution buffer (PBS+1% BSA)). Plates are washed twice with PBST, and once with PBS, after which 35 μL of the detection antibody is added (final concentration 0.25 μg/mL diluted in dilution buffer) and plates are incubated for at least 2 h at RT. Plates are washed twice with PBST, and once with PBS, where after 35 μL of Strep-HRP conjugate (0.5 μg/mL final concentration diluted in dilution buffer) is added. Plates are incubated in the dark, at RT for at least 45 min but no longer than 1 hour. Plates are washed twice with PBST, and once with PBS.
A general note: An ELISA detects its analyte on a solid surface through an enzyme-linked reagent.

The target of another test is T1, SIK2 (Homo sapiens, UniProt Q9H0K1).
T1 construct: purchased ThermoFisher Scientific PV4792
As to the kind of experiment: biochemical. The conditions noted are these: 33P radioactive SIK kinase assay, AMARA peptide, 10 μM ATP. In short, it runs like this: (§1)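 Radiometric assay: SIK1, SIK2 or SIK3 phosphorylates AMARA peptide using unlabelled plus [^33P]-γ-ATP, reaction started by ATP addition. Stopped with 150 mM phosphoric acid, filter-harvested and washed; incorporated ^33P counted by scintillation. Controls: 1% DMSO and 10 μM staurosporine final.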

The target in a further test is T2, SIK3 (Homo sapiens, UniProt Q9Y2K2).
T2 construct: purchased SignalChem S12-11G-100
As to the kind of experiment: biochemical. In short, it runs like this: as §1

Another test addresses T3, SIK1 (Homo sapiens, UniProt P57059).
T3 construct: purchased Carna Biosciences 02-131
Kind of test: biochemical. The settings on record: 33P radioactive SIK kinase assay, AMARA peptide, 10 μM ATP; read-out: SIK1 IC50. The gist of the method:
as §1

Like-named read-outs stand apart in the source and are kept apart here.

T2 sequence (Q9Y2K2 whole entry): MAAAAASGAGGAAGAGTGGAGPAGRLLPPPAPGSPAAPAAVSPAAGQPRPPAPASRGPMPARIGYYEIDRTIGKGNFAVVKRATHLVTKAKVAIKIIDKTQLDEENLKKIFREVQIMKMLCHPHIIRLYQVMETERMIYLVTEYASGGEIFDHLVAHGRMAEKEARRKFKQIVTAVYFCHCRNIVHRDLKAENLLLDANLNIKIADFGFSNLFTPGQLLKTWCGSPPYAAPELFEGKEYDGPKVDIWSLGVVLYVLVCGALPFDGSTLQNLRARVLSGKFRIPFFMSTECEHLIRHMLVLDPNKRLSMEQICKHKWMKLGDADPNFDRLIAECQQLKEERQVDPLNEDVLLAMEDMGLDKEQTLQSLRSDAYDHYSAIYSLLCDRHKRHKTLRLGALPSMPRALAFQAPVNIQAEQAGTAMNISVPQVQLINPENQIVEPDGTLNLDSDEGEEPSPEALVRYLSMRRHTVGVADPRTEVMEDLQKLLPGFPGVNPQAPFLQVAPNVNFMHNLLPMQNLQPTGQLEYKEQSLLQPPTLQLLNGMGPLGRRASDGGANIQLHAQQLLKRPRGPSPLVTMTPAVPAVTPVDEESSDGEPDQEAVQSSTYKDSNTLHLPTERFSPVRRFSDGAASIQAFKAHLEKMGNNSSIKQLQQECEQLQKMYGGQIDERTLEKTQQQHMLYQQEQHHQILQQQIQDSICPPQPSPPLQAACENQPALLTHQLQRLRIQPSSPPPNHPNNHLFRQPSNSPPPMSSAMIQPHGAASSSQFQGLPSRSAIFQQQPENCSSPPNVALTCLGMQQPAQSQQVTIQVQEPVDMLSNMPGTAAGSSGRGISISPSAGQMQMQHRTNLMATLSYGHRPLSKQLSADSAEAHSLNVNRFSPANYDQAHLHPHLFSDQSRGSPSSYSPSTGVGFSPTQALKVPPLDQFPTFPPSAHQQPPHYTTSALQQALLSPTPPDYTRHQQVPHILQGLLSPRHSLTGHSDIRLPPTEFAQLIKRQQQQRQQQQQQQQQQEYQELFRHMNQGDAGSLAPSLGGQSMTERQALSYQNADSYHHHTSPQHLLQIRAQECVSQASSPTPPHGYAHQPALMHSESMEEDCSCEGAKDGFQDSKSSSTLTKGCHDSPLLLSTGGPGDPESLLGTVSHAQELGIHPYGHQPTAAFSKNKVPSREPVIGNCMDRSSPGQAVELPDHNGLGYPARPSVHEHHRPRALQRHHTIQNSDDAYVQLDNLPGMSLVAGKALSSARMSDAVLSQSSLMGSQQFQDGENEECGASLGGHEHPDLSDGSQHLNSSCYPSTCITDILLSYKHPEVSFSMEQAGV
T1 sequence (Q9H0K1 whole entry): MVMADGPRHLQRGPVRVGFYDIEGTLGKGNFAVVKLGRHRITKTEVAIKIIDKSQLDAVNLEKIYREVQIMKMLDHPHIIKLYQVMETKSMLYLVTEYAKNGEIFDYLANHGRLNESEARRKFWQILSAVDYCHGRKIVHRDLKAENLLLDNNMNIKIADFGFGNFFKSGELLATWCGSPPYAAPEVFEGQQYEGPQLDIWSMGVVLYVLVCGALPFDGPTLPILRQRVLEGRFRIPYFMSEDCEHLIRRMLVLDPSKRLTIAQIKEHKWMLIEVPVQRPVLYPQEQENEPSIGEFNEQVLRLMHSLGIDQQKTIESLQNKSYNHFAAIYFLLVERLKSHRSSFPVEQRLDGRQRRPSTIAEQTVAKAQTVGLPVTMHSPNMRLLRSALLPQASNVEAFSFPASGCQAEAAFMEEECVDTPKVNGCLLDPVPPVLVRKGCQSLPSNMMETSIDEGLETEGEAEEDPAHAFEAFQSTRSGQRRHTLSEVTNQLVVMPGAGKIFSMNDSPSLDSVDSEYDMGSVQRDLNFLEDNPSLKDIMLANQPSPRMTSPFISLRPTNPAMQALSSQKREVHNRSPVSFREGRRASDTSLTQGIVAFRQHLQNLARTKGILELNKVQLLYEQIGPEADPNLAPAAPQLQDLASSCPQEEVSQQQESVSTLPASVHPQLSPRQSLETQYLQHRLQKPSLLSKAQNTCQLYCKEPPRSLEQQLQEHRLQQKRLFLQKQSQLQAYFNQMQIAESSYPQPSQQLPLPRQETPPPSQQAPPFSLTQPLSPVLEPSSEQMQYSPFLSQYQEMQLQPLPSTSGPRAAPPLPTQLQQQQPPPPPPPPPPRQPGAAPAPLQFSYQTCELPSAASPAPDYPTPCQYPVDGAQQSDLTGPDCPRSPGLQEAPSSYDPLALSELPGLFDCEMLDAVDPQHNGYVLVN
T3 sequence (P57059 whole entry): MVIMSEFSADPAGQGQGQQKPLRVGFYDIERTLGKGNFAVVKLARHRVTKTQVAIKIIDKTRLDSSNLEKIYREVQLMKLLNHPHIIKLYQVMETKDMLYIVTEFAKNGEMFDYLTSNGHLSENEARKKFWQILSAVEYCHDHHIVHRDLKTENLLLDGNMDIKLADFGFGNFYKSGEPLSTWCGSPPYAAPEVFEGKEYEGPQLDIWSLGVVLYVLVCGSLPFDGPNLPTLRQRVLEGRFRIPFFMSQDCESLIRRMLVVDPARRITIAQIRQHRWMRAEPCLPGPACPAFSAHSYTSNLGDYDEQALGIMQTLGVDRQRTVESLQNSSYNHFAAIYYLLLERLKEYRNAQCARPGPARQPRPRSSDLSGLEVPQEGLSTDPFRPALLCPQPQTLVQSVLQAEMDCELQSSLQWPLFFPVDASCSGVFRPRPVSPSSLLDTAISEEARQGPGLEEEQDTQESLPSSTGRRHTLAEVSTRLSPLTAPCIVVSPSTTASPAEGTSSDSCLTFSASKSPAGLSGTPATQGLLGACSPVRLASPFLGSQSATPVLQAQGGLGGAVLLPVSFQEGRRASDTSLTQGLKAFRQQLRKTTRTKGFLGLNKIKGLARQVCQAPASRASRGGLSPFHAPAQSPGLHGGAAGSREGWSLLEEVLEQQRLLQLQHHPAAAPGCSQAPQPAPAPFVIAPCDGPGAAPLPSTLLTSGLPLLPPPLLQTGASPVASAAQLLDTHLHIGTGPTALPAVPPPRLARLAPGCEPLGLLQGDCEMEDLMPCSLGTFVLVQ

Regarding `COc1cc(-n2cnc3cc(-c4cnn(C)c4)ccc32)cc(OC)c1C(=O)N[C@@H]1C[C@H]1CO` [compound 156, N-[(1R,2R)-2-(hydroxymethyl)cyclopropyl]-2,6-dimethoxy-4-[5-(1-methylpyrazol-4-yl)benzimidazol-1-yl]benzamide], in test [1] (Homo sapiens, Macrophage), the concentration giving a half-maximal response (EC50) was in the range of 1000 to 5000 nM. The half-maximal inhibitory concentration (IC50) at SIK2, at SIK3 and at SIK1 was 10 to 100 nM in each case.
In the case of `COc1cc(-c2cnc3cc(-c4cnn(CC(=O)OCC5CCC5)c4)ccn23)cc(OC)c1C(=O)NCC(F)(F)F` [Cpd 238, cyclobutylmethyl 2-[4-[3-[3,5-dimethoxy-4-(2,2,2-trifluoroethyl-carbamoyl)phenyl]imidazo[1,2-a]pyridin-7-yl]pyrazol-1-yl]acetate], the EC50 in test [1] (Homo sapiens, Macrophage) is 0.1 to 100 nM. The IC50 on SIK2, against SIK3 and on SIK1 was 0.01 to 10 nM each time.
Compound `COc1cc(-c2cnc3cc(-c4ccc(N5CCOCC5)nc4)ccn23)cc(OC)c1C(=O)NCC(F)(F)F` [compound 251, 2,6-dimethoxy-4-[7-(6-morpholino-3-pyridyl)imidazo[1,2-a]pyridin-3-yl]-N-(2,2,2-trifluoroethyl)benzamide] registered an EC50 in test [1] (Homo sapiens, Macrophage) of 0.1 to 100 nM. The 50% inhibitory concentration (IC50) at SIK2, against SIK3 and on SIK1 was 0.01 to 10 nM throughout.
The compound `CCNC(=O)c1c(OC)cc(-c2cnc3cc(-c4ccc(C#N)nc4)ccn23)cc1OC(F)F` [compound 146, 4-[7-(6-cyano-3-pyridyl)imidazo[1,2-a]pyridin-3-yl]-2-(difluoromethoxy)-N-ethyl-6-methoxy-benzamide] showed an EC50 in test [1] (Homo sapiens, Macrophage) of 100 to 1000 nM. Further, the IC50 on SIK2 fell in the range of 10 to 100 nM; at SIK3, 10 to 100 nM; on SIK1, 100 to 500 nM.
As to `COC(=O)C(C)n1cc(-c2ccn3c(-c4cc(OC)c(C(=O)NCC(F)(F)F)c(OC)c4)cnc3c2)cn1` (stereo not shown) [compound 244, methyl 2-[4-[3-[3,5-diinethoxy-4-(2,2,2-trifluoroethyl-carbamoyl)phenyl]imidazo[1,2-a]pyridin-7-yl]pyrazol-1-yl]propanoate], the EC50 in test [1] fell in the range of 0.1 to 100 nM. Moreover, the half-maximal inhibitory concentration (IC50) on SIK2 lay in the range of 0.01 to 10 nM; on SIK3 (33P radioactive SIK kinase assay, AMARA peptide, 15 μM ATP), 0.01 to 10 nM; at SIK1 it was 0.01 to 10 nM.
The compound `COc1cc(-c2cnc3cc(-c4cnn(C(C)C(=O)O)c4)ccn23)cc(OC)c1C(=O)NCC(F)(F)F` (stereo not shown) [Cpd 254, 2-[4-[3-[3,5-dimethoxy-4-(2,2,2-trifluoroethyl-carbamoyl)phenyl]imidazo[1,2-a]pyridin-7-yl]pyrazol-1-yl]propanoic acid] showed an EC50 in test [1] (Homo sapiens, Macrophage) of over 5000 nM. Further, the concentration for half-maximal inhibition (IC50) at SIK2, at SIK3 and at SIK1 was 0.01 to 10 nM each time.
`COc1cc(-c2cnc3cc(-c4cnn(C)c4)ccn23)cc(OC)c1C(=O)N1CC(C)(C)C1` [compound 208, [2,6-dimethoxy-4-[7-(1-methylpyrazol-4-yl)imidazo[1,2-a]pyridin-3-yl]phenyl]-(3,3-dimethylazetidin-1-yl)methanone] showed a half-maximal effective concentration (EC50) in test [1] (Homo sapiens, Macrophage) of 100 to 1000 nM. Also, the concentration for half-maximal inhibition (IC50) at SIK2, at SIK3 and at SIK1 was 0.01 to 10 nM in each case.
In the case of `COc1cc(-n2cnc3cc(-c4cnn(C5CCNCC5)c4)ccc32)cc(OC)c1C(=O)NCC(F)(F)F` [compound 42, 2,6-dimethoxy-4-[5-[1-(4-piperidyl)pyrazol-4-yl]benzimidazol-1-yl]-N-(2,2,2-trifluoroethyl)benzamide], the EC50 in test [1] (Homo sapiens, Macrophage) lay within 100 to 1000 nM. The half-maximal inhibitory concentration (IC50) at SIK2, at SIK3 and on SIK1 was 0.01 to 10 nM each time.
In test [1] (Homo sapiens, Macrophage), `COc1ncc(-c2ccn3c(-c4cc(OC)c(C(=O)NCC(F)(F)F)c(OC)c4)cnc3c2)cn1` [compound 241, 2,6-dimethoxy-4-[7-(2-methoxypyrimidin-5-yl)imidazo[1,2-a]pyridin-3-yl]-N-(2,2,2-trifluoroethyl)benzamide] showed an EC50 of 100 to 1000 nM. Also, the IC50 at SIK2 was 100 to 500 nM; against SIK3, 10 to 100 nM; at SIK1, 100 to 500 nM.
As for `COc1cc(-n2cnc3cc(-c4nnc(C)[nH]4)ccc32)cc(OC)c1C(=O)NCC(F)(F)F` [Cpd 127, 2,6-dimethoxy-4-[5-(5-methyl-4H-1,2,4-triazol-3-yl)benzimidazol-1-yl]-N-(2,2,2-trifluoroethyl)benzamide], the concentration giving a half-maximal response (EC50) in test [1] (Homo sapiens, Macrophage) is over 5000 nM. For the same compound, the results for the IC50 at SIK2, against SIK3 and at SIK1 were 100 to 500 nM, 100 to 500 nM and over 500 nM, respectively.
As to `C#CC1(O)CN(C(=O)c2c(OC)cc(-n3cnc4cc(-c5cnn(C)c5)ccc43)cc2OC)C1` [compound 221, [2,6-dimethoxy-4-[5-(1-methylpyrazol-4-yl)benzimidazol-1-yl]phenvl]-(3-ethynyl-3-hydroxy-azetidin-1-yl)methanone], the EC50 in test [1] (Homo sapiens, Macrophage) lay within 100 to 1000 nM. For the same compound, the IC50 on SIK2, against SIK3 and on SIK1 was 10 to 100 nM each time.
`CCNC(=O)c1c(OC)cc(-n2cnc3cc(-c4cccnc4)ccc32)cc1OC` [compound 2, N-ethyl-2,6-dimethoxy-4-[5-(3-pyridyl)benzimidazol-1-yl]benzamide] yielded a half-maximal effective concentration (EC50) in test [1] (Homo sapiens, Macrophage) of 1000 to 5000 nM. For the same compound, the IC50 lay within 100 to 500 nM at SIK2, 10 to 100 nM against SIK3 and 100 to 500 nM at SIK1.
`COc1cc(-c2cnn3cc(-c4cnn(C)c4)cnc23)cc(OC)c1C(=O)NCC(F)(F)F` [Cpd 52, 2,6-dimethoxy-4-[6-(1-methylpyrazol-4-yl)pyrazolo[1,5-a]pyrimidin-3-yl]-N-(2,2,2-trifluoroethyl)benzamide]: the EC50 in test [1] (Homo sapiens, Macrophage) fell in the range of 100 to 1000 nM. Also, the values for the IC50 on SIK2, against SIK3 and on SIK1 were 0.01 to 10 nM, 10 to 100 nM and 10 to 100 nM, respectively.
Compound `COc1cc(-n2cnc3cc(-c4cnn(C)c4)ccc32)cc(OC)c1C(=O)N[C@@H]1C[C@H]1C(F)F` [compound 157] came in with an EC50 in test [1] (Homo sapiens, Macrophage) of 100 to 1000 nM. Besides, the IC50 at SIK2, against SIK3 and on SIK1 was 10 to 100 nM each time.
The compound `COc1cc(-n2cnc3cc(-c4cnn(C)c4)ccc32)cc(OC)c1C(=O)N[C@@H]1CC[C@H]1O` [compound 159, N-[(1R,2R)-2-hydroxycyclobutyl]-2,6-dimethoxy-4-[5-(1-methylpyrazol-4-yl)benzimidazol-1-yl]benzamide] returned an EC50 in test [1] (Homo sapiens, Macrophage) of 100 to 1000 nM. The IC50 on SIK2, on SIK3 and at SIK1 was 10 to 100 nM throughout.
Consider `COc1cc(-n2cnc3cc(-c4ccc(N5CCCC5)nc4)ccc32)cc(OC)c1C(=O)NCC(F)(F)F` [compound 34, 2,6-dimethoxy-4-[5-(6-pyrrolidin-1-yl-3-pyridyl)benzimidazol-1-yl]-N-(2,2,2-trifluoroethyl)benzamide], for which the concentration giving a half-maximal response (EC50) in test [1] (Homo sapiens, Macrophage) was 100 to 1000 nM. Moreover, the concentration for half-maximal inhibition (IC50) lay within 0.01 to 10 nM at SIK2, 10 to 100 nM at SIK3 and 10 to 100 nM on SIK1.
